Series [1] can be described thus: Water activity of humectant solutions (AquaLab CX-2). In kind it is physicochemical. Here is the method: (§1) Water activity (aw) is a measure of the amount of free water available to a microorganism to support growth. Water activity expresses the active portion of the water content as opposed to the total moisture content, which includes “bound water.” The measurements were conducted using the AquaLab CX-2 by Decagon Devices, Inc. by utilizing the chilled mirror/dew point hygrometric methodology for determining water activity. The cellulose sponge was cut into a disk having a 1.5″ inch diameter and 1/16 inch thick.
A commercially available magnesium chloride hexahydrate (MgCl2.6H2O) (EMD Chemical Company, Gibbstown, N.J.), sodium chloride (NaCl) (Fisher Scientific Company, Fair Lawn, N.J.), potassium chloride (KCl) (EMD Chemical Company, Gibbstown, N.J.), and glycerol (EMD Chemical Company, Gibbstown, N.J.) was mixed to obtain a desired concentration. The solution was measured for water activity using the AquaLab CX-2 by Decagon Devices, Inc. The water activity for those solutions is presented in Table 7.

A short description of series [2]: Water activity of humectants in cellulose sponges (AquaLab CX-2). Type of series: physicochemical. Here is the method:
Water Activity (aw) in the Cellulose Sponges
as §1
A prepared cellulose sponge was soaked for 20 minutes in one of the MgCl2 or NaCl humectant solutions from Example 3. After soaking, the cellulose sponge was squeezed out between squeeze rolls and then immediately placed into airtight plastic bags. The samples were tested for water activity within 24 hours.

Data on 5 molecules can be found in patent US8304454B2, “Antimicrobial cellulose sponge and method of making” (3M Innovative Properties Company, priority 2007, dated 2012).

In the case of `O=C([O-])[O-].[K+].[K+]` [Formulation K2CO3], the “Water Activity of humectant solution” value in series [1] (solution concentration 8%) turned out to be 0.973; in series [1] (solution concentration 10%), 0.960; in series [1] (solution concentration 12%) it was 0.957; in series [1] (solution concentration 16%), 0.943; in series [1] (solution concentration 20%), 0.925.

Regarding `OCC(O)CO` [Glycerol, glycerol], the “Water Activity of humectant solution” value is on record as 0.975 in series [1] (solution concentration 8%); 0.971 in series [1] (solution concentration 10%); 0.966 in series [1] (solution concentration 12%); 0.962 in series [1] (solution concentration 14%); 0.955 in series [1] (solution concentration 16%); 0.950 in series [1] (solution concentration 18%). Further, the “Water Activity of humectant solution” value in series [1] (solution concentration 20%) is on record as 0.944; in series [1] (solution concentration 22%), 0.939; in series [1] (solution concentration 24%), 0.934; in series [1] (solution concentration 50%), 0.811.

`[Cl-].[K+]` [KCl, potassium chloride]: the “Water Activity of humectant solution” value was 0.952 in series [1] (solution concentration 8%); 0.950 in series [1] (solution concentration 10%); 0.938 in series [1] (solution concentration 12%); 0.928 in series [1] (solution concentration 14%); 0.915 in series [1] (solution concentration 16%); 0.904 in series [1] (solution concentration 18%). For the same molecule, the entries for the “Water Activity of humectant solution” value in series [1] (solution concentration 20%), in series [1] (solution concentration 22%) and in series [1] (solution concentration 24%) were 0.891, 0.875 and 0.859, respectively.

On to `O.O.O.O.O.O.[Cl-].[Cl-].[Mg+2]` [MgCl2, magnesium chloride hexahydrate (MgCl2.6H2O)], for which the “Water Activity of humectant solution” value turned out to be 0.944 in series [1] (solution concentration 8%); 0.926 in series [1] (solution concentration 10%); 0.904 in series [1] (solution concentration 12%); 0.876 in series [1] (solution concentration 14%); 0.847 in series [1] (solution concentration 16%); 0.841 in series [1] (solution concentration 18%). The “Water Activity of humectant solution” value in series [1] (solution concentration 20%) is recorded as 0.768. Moreover, the figures for the “Water Activity of humectant in cellulose sponge” value in series [2] (10 wt. % of input solution), in series [2] (12 wt. % of input solution) and in series [2] (14 wt. % of input solution) were 0.913, 0.896 and 0.890, respectively.

For the molecule `[Cl-].[Na+]` [NaCl, sodium chloride], the “Water Activity of humectant solution” value in series [1] (solution concentration 8%) was found to be 0.949; in series [1] (solution concentration 10%), 0.936; in series [1] (solution concentration 12%) it was 0.919; in series [1] (solution concentration 16%), 0.887; in series [1] (solution concentration 20%) it was 0.842. Besides, the “Water Activity of humectant in cellulose sponge” value in series [2] (10 wt. % of input solution) came to 0.926; in series [2] (12 wt. % of input solution) it was 0.921; in series [2] (14 wt. % of input solution), 0.900; in series [2] (16 wt. % of input solution), 0.881.
